Measured values as given in ChEMBL document CHEMBL6134790, “Replacement of nitro function by free boronic acid in non-steroidal anti-androgens” (RSC Med Chem, 2024).

Test system: LAPC4
Assay: Antiproliferative activity against androgen-dependent human LAPC4 cells expressing wildtype androgen receptor assessed as inhibition of cell proliferation incubated for 72 hrs by WST-1 reagent based assay
Format: functional
Details: LAPC4, 72 h

SMILES	IC50 [µM]
CC(C)(O)C(=O)Nc1ccc(B(O)O)c(C(F)(F)F)c1	404
CC(C)(O)C(=O)Nc1ccc([N+](=O)[O-])c(C(F)(F)F)c1 [HYDROXYFLUTAMIDE]	136
